T1: PML (Homo sapiens, UniProt P29590)
T1 construct: tryptic peptides from NTA-purified His-SUMO3 proteins of HEK293 cells treated or not with As2O3; endogenous in cells; host or cells: HEK293 cells expressing the His-SUMO3 mutant
T1 sequence (P29590 1-882): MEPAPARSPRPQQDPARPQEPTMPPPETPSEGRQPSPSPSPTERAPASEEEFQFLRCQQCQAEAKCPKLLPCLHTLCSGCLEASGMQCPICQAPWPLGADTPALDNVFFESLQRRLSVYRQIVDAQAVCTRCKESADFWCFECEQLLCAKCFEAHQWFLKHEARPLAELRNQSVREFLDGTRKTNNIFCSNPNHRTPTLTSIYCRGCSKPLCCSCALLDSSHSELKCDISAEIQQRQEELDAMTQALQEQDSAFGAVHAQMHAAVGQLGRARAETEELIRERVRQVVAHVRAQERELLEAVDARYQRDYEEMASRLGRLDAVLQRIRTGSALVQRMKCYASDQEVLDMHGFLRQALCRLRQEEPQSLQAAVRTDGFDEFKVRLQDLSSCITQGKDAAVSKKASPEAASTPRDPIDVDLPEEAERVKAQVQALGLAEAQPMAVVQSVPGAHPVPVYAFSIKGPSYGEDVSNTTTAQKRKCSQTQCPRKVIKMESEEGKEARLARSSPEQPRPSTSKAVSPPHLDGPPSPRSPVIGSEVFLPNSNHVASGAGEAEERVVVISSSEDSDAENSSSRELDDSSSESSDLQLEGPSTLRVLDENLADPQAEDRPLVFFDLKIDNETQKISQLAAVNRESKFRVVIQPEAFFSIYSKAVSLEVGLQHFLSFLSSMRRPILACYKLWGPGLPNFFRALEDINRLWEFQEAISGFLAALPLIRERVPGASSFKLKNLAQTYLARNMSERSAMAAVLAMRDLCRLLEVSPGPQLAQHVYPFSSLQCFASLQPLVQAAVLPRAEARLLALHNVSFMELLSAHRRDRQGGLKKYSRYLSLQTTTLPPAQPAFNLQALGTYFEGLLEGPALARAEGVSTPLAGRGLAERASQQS


Experiments:
protein SUMOylation = test: NTA purification of His6-SUMO1 mutant proteins, silver-stained SDS-PAGE and immunoblot anti-His; type: cell-based, human; details: cells stably expressing His6-SUMO1 mutant, stimulation with As2O3
Description: FIG. 20 illustrates gel electrophoresis separation of His6-SUMO1 mutant proteins following NTA purification. Silver-stained SDS-PAGE and immunoblot anti-His show an enrichment of His6-SUMO1 proteins as indicated from the trail of protein bands at the top of the gel.
(§1) SUMOylated proteins were purified from 10^9 cells of stably expressing His6-SUMO1 mutant; half of cell culture was treated with 1 μM As2O3 during 4 hours. Cells were harvested, washed with PBS and lysed with 15 mL of Buffer A (6 M guanidinium-HCl, 0.1 M NaH2PO4, 0.01 M Tris-HCl, pH 8.0, 10 mM-mercaptoethanol). The lysate was sonicated, centrifuged at 16 000 g for 30 minutes and filtered on 0.45 μm and mixed with 500 μL Ni^2+-NTA agarose beads (Invitrogen) pre-washed with lysis buffer and incubated overnight at room temperature on rotating wheel. The NTA beads were successively washed with the following solutions: buffer A, buffer B (8 M Urea, 0.1 M NaH2PO4, 0.01 M Tris-HCl, pH 6.3, 10 mM-mercaptoethanol), buffer B plus 0.2% Triton X-100, twice with buffer B. His SUMO proteins were eluted from the NTA beads using 200 mM imidazole, 0.15 M Tris-HCl, pH 6.7, 5% Glycerol. An example of the enriched His6-SUMO1 mutant proteins is shown on FIG. 20 following SDS-PAGE separation and gel visualisation using silver staining and anti-His immonublot.

PML = target: T1, PML; test: LC-MS/MS of tryptic peptides from NTA-purified His-SUMO3 proteins of HEK293 cells treated or not with As2O3; type: cell-based
Description: FIG. 21 is a scatter plot of tryptic peptides from NTA-purified His-SUMO3 proteins of HEK293 cells treated or not with As2O3.
as §1
This scatter plot compares the abundance of more than 4500 peptide ions, of which approximately 45 correspond to SUMOylated tryptic peptides (blue circles). […]

[1] = tested on: PML-nuclear bodies in HEK293 human cells; test: Immunofluorescence microscopy: co-localization of PML-Yellow Fluorescence Protein with His6-SUMO to nuclear bodies; type: cell-based; details: HEK293, incubation with 1 μM As2O3
Excerpt: Immunofluorescence microscopy of HEK293 human cells showing co-localization of PML-Yellow Fluorescence Protein with His6 SUMO1 WT (top) and Q92R mutant (bottom) to nuclear bodies. […] DAPI staining (nucleus).
Immunofluorescence microscopy of HEK293 human cells showing co-localization of PML-Yellow Fluorescence Protein with His6-SUMO1 WT, His6-SUMO1 mutant, His6-SUMO2 WT, His6-SUMO2 mutant, His6-SUMO3 WT, and His6-SUMO3 mutant to nuclear bodies, DAPI staining (nucleus).
The functional activity of the wild type and SUMO mutants was also determined from immunofluorescence microscopy by monitoring the recruitment of the SUMOylated promyelocytic leukaemia (PML) substrate to nuclear bodies following treatment of HEK293 cells with As2O3 (FIG. 14). The visualization of all SUMO mutants using this immunofluorescence assay also confirmed the functional activity of all three SUMO isoforms (FIG. 15).

[2] = tested on: Ubiquitin-conjugating enzyme E2; test: In vitro SUMOylation assay; type: biochemical; details: Coomassie or silver stained gel
Description: For in vitro SUMOylation, the reaction mixture comprised 20 μL of reaction buffer (20 mM NH4CO3 pH 9, 20 mM NaCl, 0.5 mM DTT), 1 μg recombinant and purified SUMO proteins, 0.5 μg of substrate E2-25K (Boston Biochem) or RanGAP fragment (Boston Biochem), 0.1 μg SASE1/SAE2 heterodimer (Boston Biochem), 0.5 μg conjugating enzyme hUbC9 (Boston Biochem) with or without Mg-ATP solution (Boston Biochem) at 5 mM. The reaction mixture was incubated at 37° C. for 1 hour and subsequently stopped by adding an equal volume of Laemmli Buffer. The reaction mixture was analysed separated by SDS-PAGE and visualized using Western Blotting (2 μl), coomassie staining (10 μL) or silver staining (5 μL) as shown in FIGS. 7 and 8.
Protein extracts were subjected to electrophoresis through a 4-12% NuPAGE Bis-Tris polyacrylamide gel (Invitrogen, Burlington, ON, Canada) under denaturing conditions. After electrophoresis, proteins were fixed within the polyacrylamide gel by incubating the entire gel in 5% (v/v) acetic acid in a 1:1 (v/v) water:ethanol solution. For silver staining, the gel was first sensitized for 1 minute using an aqueous solution of 0.02% sodium thiosulfate (Na2S2O3) unless otherwise indicated. Staining was performed by incubating the gel in 0.1% (v/v) silver nitrate (AgNO3) in water for 25 minutes at 4° C. Finally, the gel was developed in 3% (w/v) sodium carbonate (Na2CO3, pH: 11.4) containing 0.05% formalin (v/v) in water. The staining was then stopped with a solution of 5% (v/v) acetic acid in water. For Coomassie blue staining, proteins were fixed after gel separation and stained in a one-step procedure by incubating the entire gel in 0.1% (w/v) Coomassie Brilliant Blue R-250 in a 1:8:11 (v/v/v) acetic acid:methanol:water mixture for 1 hour at room temperature (RT). The gel was finally rinsed three times in a 1:4:5 (v/v/v) acetic acid:methanol:water solution at RT to visualize protein bands.

HA-RanGAP = test: In vivo SUMOylation assay with transfected HA-RanGAP, immunoblot anti-HA; type: cell-based, human
Description: FIG. 9 illustrates immunoblot of in vivo SUMOylation assay using transfected HA-RanGAP as protein substrate. Immunoblots are performed using an antibody that recognized the HA epitope. Immunoblots are presented for His6-SUMO1 (wild type, and mutant Q92R).
SUMO isoform mutants can also be co-transfected in mammalian cells with target protein substrates. For example, RanGAP1, a known SUMOylation target forms a tight complex in association with NUP358 and UBE2I/UBC9. The ubiquitin-conjugating enzyme E2 interacts with UBE2I favoring the conjugation of SUMO1 to RANGAP1, and subsequently stabilizes interactions of SUMOylated RANGAP1 with RANBP2/NUP358. The SUMO1/RANGAP1/UBC9/NUP358 complex associates with nuclear pore complexes (Joseph, J., Tan, S. H., Karpova, T. S., McNally, J. G., and Dasso, M. (2002). SUMO-1 targets RanGAP1 to kinetochores and mitotic spindles. The Journal of cell biology 156, 595-602; Swaminathan, S., Kiendl, F., Korner, R., Lupetti, R., Hengst, L., and Melchior, F. (2004). RanGAP1*SUMO1 is phosphorylated at the onset of mitosis and remains associated with RanBP2 upon NPC disassembly. The Journal of cell biology 164, 965-971). The SUMO isoform mutants are also functional and can be conjugated to RanGAP1 following transfection of these proteins in […] cells, as illustrated in FIG. 9. […]

Row | Molecule | SUMOylated E2 band on stained gel [2] | also measured
1 | [AsH3] [As2O3] | – | protein SUMOylation (His6-SUMO1 protein bands) (protein SUMOylation): Enhanced protein SUMOylation; abundance of PML peptides (PML; HEK293, NTA-purified His-SUMO3 proteins, upon As2O3 treatment): significant increased in abundance; increase in SUMOylation of K490 bearing PML peptide (PML; HEK293 His-SUMO3 mutant, As2O3 treated vs not treated): 8 fold; formation of PML-nuclear bodies [1]: Increase formation of PML-nuclear bodies
2 | His6-SUMO1 E93R: recombinant His6-SUMO1 with mutation E93R | SUMOylated E2 is observed as the highest molecular weight band | –
3 | His6-SUMO1 Q92R: Substitution of Gln for Arg at position 92 in endogenous SUMO1 protein, N-terminal His6; SEQ ID NO: 4 | SUMOylated E2 is observed as the highest molecular weight band | SUMOylated HA-RanGAP band on immunoblot (HA-RanGAP): SUMOylated HA-RanGAP is observed as the highest molecular weight band
4 | His6-SUMO1 Q94R: recombinant His6-SUMO1 with mutation Q94R | SUMOylated E2 is observed as the highest molecular weight band | –
5 | His6-SUMO2 Q88R: Substitution of Gln for Arg at position 88 in endogenous SUMO2 protein, N-terminal His6; SEQ ID NO: 8 | SUMOylated E2 is observed as the highest molecular weight band | –
6 | His6-SUMO3 Q92R/Q93N: Gln to Arg at position 87 and Gln to Asn at position 88 in endogenous SUMO3, N-terminal His6; SEQ ID NO: 12 (protein, listed as Homo sapiens, N-terminal His6) MAHHHHHHGGSMSEEKPKEGVKTENDHINLKVAGQDGSVVQFKIKRHTPLSKLMKAYCERQGLSMRQIRFRFDGQPINETDTPAQLEMEDEDTIDVFRNQTGG | SUMOylated E2 is observed as the highest molecular weight band | –
